Measured values from PubChem BioAssay AID248 (DTP/NCI, 2004).
Inconclusive results and toxic doses are left out.

Test system: L1210 leukemia ip in BDF1 mice, survival T/C
Experiment: NCI In Vivo Anticancer Drug Screen. Data for tumor model L1210 Leukemia (intraperitoneal) in B6D2F1 (BDF1) mice
Settings: endpoint: mean survival time, higher = longer survival
How it was run: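 Transplantable tumor model; survival measured in treated vs vehicle control mice. Value = treated/control.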

[1] = dose: 100.0 mg/kg/injection, schedule: Q01DX009 (ip), vehicle: saline with Tween-80
[2] = dose: 100.0 mg/kg/injection, schedule: Q01DX009 (ip), vehicle: Klucel (hydroxypropylcellulose) (HPC)
[3] = dose: 200.0 mg/kg/injection, schedule: Q01DX009 (ip), vehicle: Klucel (hydroxypropylcellulose) (HPC)

## CSc1ncnc2c1ncn2CO
dose: 30.0 mg/kg/injection, schedule: Q01DX009 (ip), vehicle: Klucel (hydroxypropylcellulose) (HPC)
  T/C: 113 % of control
dose: 46.0 mg/kg/injection, schedule: Q01DX009 (ip), vehicle: carboxymethylcellulose (CMC)
  T/C: 122 % of control
dose: 55.0 mg/kg/injection, schedule: Q01DX009 (ip), vehicle: saline
  T/C: 119 % of control
dose: 60.0 mg/kg/injection, schedule: Q01DX009 (ip), vehicle: Klucel (hydroxypropylcellulose) (HPC)
  T/C: 116 % of control
dose: 110.0 mg/kg/injection, schedule: Q01DX001 (ip), vehicle: saline
  T/C: 115 % of control
dose: 120.0 mg/kg/injection, schedule: Q01DX009 (ip), vehicle: Klucel (hydroxypropylcellulose) (HPC)
  T/C: 109 % of control
dose: 125.0 mg/kg/injection, schedule: Q01DX009 (ip), vehicle: saline
  T/C: 164 % of control
dose: 165.0 mg/kg/injection, schedule: Q01DX001 (ip), vehicle: saline
  T/C: 120 % of control
dose: 250.0 mg/kg/injection, schedule: Q01DX001 (ip), vehicle: saline
  T/C: 120 % of control

## CSc1cc(N)cc(C(=O)O)c1O
[1]
  T/C: 92 % of control
dose: 200.0 mg/kg/injection, schedule: Q01DX009 (ip), vehicle: saline with Tween-80
  T/C: 89 % of control
dose: 400.0 mg/kg/injection, schedule: Q01DX009 (ip), vehicle: saline with Tween-80
  T/C: 88 % of control

## O=C(O)COc1cc(F)c(Cl)cc1Cl
[2]
  T/C: 100 % of control
[3]
  T/C: 90 % of control

## O=C(O)c1cc(N=Nc2ccccc2)ccc1O
dose: 50.0 mg/kg/injection, schedule: Q01DX009 (ip), vehicle: saline with Tween-80
  T/C: 96 % of control
dose: 50.0 mg/kg/injection, schedule: Q04DX003 (ip), vehicle: other
  T/C: 93 % of control
dose: 100.0 mg/kg/injection, schedule: Q01DX001 (ip), vehicle: other
  T/C: 101 % of control
[1]
  T/C: 94 % of control
dose: 100.0 mg/kg/injection, schedule: Q04DX003 (ip), vehicle: other
  T/C: 93 % of control
dose: 100.0 mg/kg/injection, schedule: Q04DX003 (ip), vehicle: saline
  T/C: 96 % of control
dose: 200.0 mg/kg/injection, schedule: Q01DX001 (ip), vehicle: other
  T/C: 107 % of control
dose: 200.0 mg/kg/injection, schedule: Q04DX003 (ip), vehicle: other
  T/C: 98 % of control
dose: 200.0 mg/kg/injection, schedule: Q04DX003 (ip), vehicle: saline
  T/C: 87 % of control

## Cc1cccc(NC(=O)NCCCl)c1Cl
[2]
  T/C: 97 % of control
dose: 100.0 mg/kg/injection, schedule: Q04DX003 (ip), vehicle: Klucel (hydroxypropylcellulose) (HPC)
  T/C: 97 % of control
[3]
  T/C: 97 % of control
dose: 200.0 mg/kg/injection, schedule: Q04DX003 (ip), vehicle: Klucel (hydroxypropylcellulose) (HPC)
  T/C: 94 % of control
dose: 400.0 mg/kg/injection, schedule: Q01DX009 (ip), vehicle: Klucel (hydroxypropylcellulose) (HPC)
  T/C: 100 % of control
dose: 400.0 mg/kg/injection, schedule: Q04DX003 (ip), vehicle: Klucel (hydroxypropylcellulose) (HPC)
  T/C: 94 % of control

## CC(Oc1cc(Cl)c(Cl)cc1Cl)C(=O)ON(C)C (stereo unspecified)
[2]
  T/C: 100 % of control
[3]
  T/C: 100 % of control
